≈ marks a conversion by molar mass, not a printed value. Like-named read-outs stand apart in the source and are kept apart here. Where a SMILES comes first, the peptide text is derived from it. Where no end group is shown, it is not given here. [ ]: non-standard residue; d: D form. Some results are limits rather than exact numbers.

The test system of data set [1] is gram-positive strains tested. The experiment in a line: organism not typed. The class given is cell-based. As to the method:
(§1) Briefly, the bacteria were incubated overnight at 37 °C with constant shaking at 220 rpm, then were transferred to new MH broth (MHB) medium until they reached the logarithmic phase of growth. The bacteria were then diluted to 10^5 (CFU)/mL in MHB. The peptides were dissolved and diluted in 0.01% acetic acid and 0.2% bovine serum albumin (BSA) at various concentrations (0.5–128 μM) in each well of sterile 96-well plates and incubated for 20 h at 37 °C. […] The test was repeated three times.

Data set [2] has as its system gram-negative strains tested. As to the kind of experiment: Geometric mean of MICs, gram-negative strains. Format: cell-based. As to conditions: 5 gram-negative strains; >128 apparently counted as 256; read-out: nGM (–), geometric mean of the MICs against gram-negative strains. As to the method:
as §1

For data set [3], the system named is all the 9 bacteria tested. As to the kind of experiment: Geometric mean of MICs, all 9 bacteria. Format: cell-based. Particulars: for GM MIC (range of Gram-negative and Gram-positive geometric means): Table 2; for tGM, geometric mean of the MICs against all the 9 bacteria: all 9 bacteria tested. As to the method:
as §1

Data set [4] has as its system E. coli UB 1005. As to the kind of experiment: microbe, parasite or virus in culture. Format: cell-based, Escherichia coli. As to the method:
(§2) The test strains, including Gram-negative E. coli ATCC25922, E. coli ATCC 1005, S. typhimurium C7731, P. aeruginosa ATCC 27853, S. Typhimurium 14028, Gram-positive S. aureus ATCC29213, S. aureus ATCC 25923, S. epidermidis ATCC 12228 and S. aureus 43300, were obtained from the School of Veterinary Medicine, Northeast Agricultural University (Harbin, China).
as §1

For data set [5], the system named is E. coli 25922. As to the kind of experiment: microbe, parasite or virus in culture. The class given is cell-based, Escherichia coli. As to the method:
as §2, §1

Data set [6] has as its system S. aureus 29213. The experiment in a line: microbe, parasite or virus in culture. Format: cell-based, Staphylococcus aureus. As to the method: as §2, §1
In data set [7] the test system is S. aureus 25923. As to the kind of experiment: microbe, parasite or virus in culture. Format: cell-based, Staphylococcus aureus. As to the method: as §2, §1
Data set [8] concerns MRSA43300. The experiment in a line: microbe, parasite or virus in culture. Format: cell-based, Methicillin-resistant Staphylococcus aureus. As to the method:
as §2, §1

Data set [9] deals with P. aeruginosa 27853. The experiment in a line: microbe, parasite or virus in culture. Format: cell-based. As to the method:
as §2, §1

Data set [10] concerns S. typhimurium 14028. The experiment in a line: microbe, parasite or virus in culture. The class given is cell-based. As to the method: as §2, §1
The test system of data set [11] is S. typhimurium 7731. As to the kind of experiment: microbe, parasite or virus in culture. Format: cell-based. As to the method:
as §2, §1

Data set [12] concerns S. epidermidis 12228. The experiment in a line: microbe, parasite or virus in culture. Format: cell-based. As to the method:
as §2, §1

In data set [13] the test system is human red blood cells (hRBCs). The experiment in a line: Hemolysis assay. Format: cell-based. As to the method: Figure 2 (A) Hemolytic activity of the engineered peptides against human red blood cells (hRBCs). The hRBCs were incubated with equal amounts of the respective peptides dissolved in PBS for 1 h at 37 °C. (B) Cytotoxicity of the engineered peptides against RAW264.7. […] Data shown are three independent experiments.
The hemolytic activity of the peptides is determined by measuring the amount of hemoglobin released during the lysis of human erythrocytes at different concentrations of AMPs. Briefly, fresh, healthy human red blood cells (hRBCs) were collected and then washed three times with phosphate-buffered saline (PBS) buffer (pH 7.2) and centrifuged at 1000× g for 5 min. Each 50 µL sample of hRBCs was incubated with 50 µL of the respective peptide dissolved in PBS in a well of a 96-well plate for 1 h at 37 °C. After incubation, the samples were centrifuged at 1000× g for 5 min and the supernatants (50 μL) were transferred to a new 96-well microplate. The release of hemoglobin was measured by monitoring the OD at 570 nm (Tecan, Salzburg, Austria). Negative (hRBCs without AMP treatment) and positive (hRBCs treated with 0.1% TritonX-100) controls were used. The concentration of peptide that caused 5% hemolysis was considered the minimal hemolysis concentration (MHC). The test was repeated three times. The percent hemolysis was calculated using the following formula:(2) Percent hemolysis=A−A0/At−A0× 100% A0 and At represent 0% and 100% hemolysis as measured in 10 mM PBS and 0.2% Triton X-100, respectively.

Take `O=C(N[C@H](CO)[C@H](O)c1ccc([N+](=O)[O-])cc1)C(Cl)Cl` [CH, Chloramphenicol, reference compound]: the MIC is 22.6 µM (≈ 7.3 µg/mL) in [1] (read-out: pGM (+), geometric mean of the MICs against gram-positive strains); 18.4 µM (≈ 5.95 µg/mL) in [2]; 20.2 µM (≈ 6.53 µg/mL) in data set [3] (read-out: tGM, geometric mean of the MICs against all the 9 bacteria); 4 µM (≈ 1.29 µg/mL) in [4] (Escherichia coli, UB1005, E. coli UB 1005, MHB, 10^5 CFU/mL, 20 h 37 °C, repeated three times); 16 µM (≈ 5.17 µg/mL) in [5] (Escherichia coli, E. coli 25922, MHB, 10^5 CFU/mL, 0.5–128 μM peptide, 20 h 37 °C, OD 492 nm, repeated three times); 8 µM (≈ 2.59 µg/mL) in data set [6] (Staphylococcus aureus, S. aureus 29213, MHB, 10^5 CFU/mL, 20 h 37 °C, repeated three times). Moreover, the MIC in data set [7] (Staphylococcus aureus, S. aureus 25923, MHB, 10^5 CFU/mL, 20 h 37 °C, repeated three times) was 32 µM (≈ 10.3 µg/mL); in data set [8] (Staphylococcus aureus, MRSA43300, MHB, 10^5 CFU/mL, 20 h 37 °C, repeated three times), 32 µM (≈ 10.3 µg/mL); in data set [9] (Pseudomonas aeruginosa, 27853, 20 h), greater than 128 µM; in data set [10] (Salmonella enterica, S. typhimurium 14028, MHB, 10^5 CFU/mL, 20 h 37 °C, repeated three times), 16 µM (≈ 5.17 µg/mL); in data set [11] (Salmonella enterica, S. typhimurium 7731, MHB, 10^5 CFU/mL, 20 h 37 °C, repeated three times), 8 µM (≈ 2.59 µg/mL); in [12] (Staphylococcus epidermidis, S. epidermidis 12228, MHB, 10^5 CFU/mL, 20 h 37 °C, repeated three times) it was 32 µM (≈ 10.3 µg/mL). For the same compound, the “GM MIC (range of Gram-negative and Gram-positive geometric means)” value in data set [3] lay within 18.4 to 22.6 µM. Also, the “MHC5, minimum hemolytic concentration that induced ≥5% hemolysis” value in [13] (human red blood cells, PBS, 1 h at 37 °C, OD 570 nm, repeated three times) is reported as greater than 128 µM.
Regarding `CC[C@H](C)[C@H](N)C(=O)N[C@@H](CCCNC(=N)N)C(=O)N[C@H](C(=O)N[C@@H](CCCNC(=N)N)C(=O)N1CCC[C@@H]1C(=O)N[C@H](C(=O)N[C@@H](CCCNC(=N)N)C(=O)N[C@H](C(=O)N[C@@H](CCCNC(=N)N)C(=O)N1CCC[C@@H]1C(=O)O)[C@@H](C)CC)[C@@H](C)CC)[C@@H](C)CC` [DIR2] (H-IRIR[dP]IRIR[dP]-OH), the “pGM (+), geometric mean of the MICs against gram-positive strains” value (shortened to “pGM (+), geometric mean of the MICs”) in data set [1] (20 h) is given as 256 µM. In addition, the MIC in data set [2] is recorded as 194.0 µM (≈ 250 µg/mL); in data set [4] (UB 1005, 20 h), 128 µM (≈ 165 µg/mL); in data set [5] (25922, 20 h) it was 128 µM (≈ 165 µg/mL); in data set [6] (29213, 20 h), greater than 128 µM; in [7] (25923, 20 h), greater than 128 µM; in data set [8] (20 h), greater than 128 µM. Further, the MIC is greater than 128 µM in data set [9] (27853, 20 h, read-out: MIC); greater than 128 µM in data set [10] (14028, 20 h); greater than 128 µM in data set [11] (7731, 20 h); greater than 128 µM in data set [12] (12228, 20 h). Besides, the “tGM, geometric mean of the MICs against all the 9 bacteria” value in data set [3] is on record as 219.5 µM. In addition, the “MHC5, minimum hemolytic concentration that induced ≥5% hemolysis” value in [13] (red cells of human, 1 h) is reported as greater than 128 µM.
As for “Colistin Sulfate [CS, reference compound]”, the “pGM (+), geometric mean of the MICs” value in data set [1] (4 gram-positive strains, >128 apparently counted as 256) turned out to be 76.1 µM. Besides, the MIC stood at 0.8 µM in data set [2]; 0.5 µM in data set [4] (E. coli UB 1005, MHB, 10^5 CFU/mL, 20 h 37 °C, repeated three times); 0.5 µM in data set [5] (E. coli 25922, MHB, 10^5 CFU/mL, 0.5–128 μM peptide, 20 h 37 °C, OD 492 nm, repeated three times); 64 µM in data set [6] (S. aureus 29213, MHB, 10^5 CFU/mL, 20 h 37 °C, repeated three times); 64 µM in data set [7] (S. aureus 25923, MHB, 10^5 CFU/mL, 20 h 37 °C, repeated three times); 64 µM in data set [8] (MRSA43300, MHB, 10^5 CFU/mL, 20 h 37 °C, repeated three times). Further, the MIC in data set [9] (P. aeruginosa 27853, MHB, 10^5 CFU/mL, 20 h 37 °C, repeated three times, read-out: MIC) came out at 0.5 µM; in data set [10] (S. typhimurium 14028, MHB, 10^5 CFU/mL, 20 h 37 °C, repeated three times) it was 4 µM; in data set [11] (S. typhimurium 7731, MHB, 10^5 CFU/mL, 20 h 37 °C, repeated three times), 0.5 µM; in [12] (S. epidermidis 12228, MHB, 10^5 CFU/mL, 20 h 37 °C, repeated three times) it was 128 µM. In addition, in data set [3], the “GM MIC (range of Gram-negative and Gram-positive geometric means)” value lay within 0.8 to 76.1 µM. Also, the “tGM, geometric mean of the MICs against all the 9 bacteria” value in data set [3] worked out at 5.9 µM.
IRIRIRPIRIRIRP [IR3]: the “pGM (+), geometric mean of the MICs” value in data set [1] (20 h) came out at 90.5 µM. The MIC in data set [2] came out at 12.1 µM; in data set [4] (UB 1005, 20 h) it was 8 µM; in data set [5] (25922, 20 h), 16 µM; in [6] (29213, 20 h), 64 µM; in [7] (25923, 20 h) it was 64 µM; in data set [8] (20 h), 64 µM. The MIC in data set [9] (27853, 20 h, read-out: MIC) was 8 µM; in data set [10] (14028, 20 h), 16 µM; in data set [11] (7731, 20 h), 16 µM; in data set [12] (12228, 20 h), greater than 128 µM. Also, in data set [13] (red cells of human, 1 h), the “MHC5, minimum hemolytic concentration that induced ≥5% hemolysis” value is listed as greater than 128 µM.

(Values after paper PMC6928678, “Simplified Head-to-Tail Cyclic Polypeptides as Biomaterial-Associated Antimicrobials with Endotoxin Neutralizing and Anti-Inflammatory Capabilities” (International Journal of Molecular Sciences, 2019).)
